Data taken from ChEMBL document CHEMBL1152776, “Facile synthesis of diazido-functionalized biaryl compounds as radioisotope-free photoaffinity probes by Suzuki-Miyaura coupling” (Bioorg Med Chem, 2009).
Each block holds one compound with its values, some of them ahead of it. The source made the active and inactive calls. The calls are words filed in the database; no cut-off is given here.

Key:
[1] = tested on: Muscle tissue; experiment: Inhibition of physiological calcium release in mouse sarcoplasmic reticular skeletal muscle at 50 uM; assay type: functional, tissue-based
[2] = species: Mus musculus; experiment: Inhibition of Ca2+-induced calcium release in mouse sarcoplasmic reticular skeletal muscle at 50 uM; assay type: functional
[3] = species: Mus musculus; experiment: Inhibition of Ca2+-induced calcium release in mouse sarcoplasmic reticular skeletal muscle; assay type: functional
[4] = tested on: Muscle tissue; experiment: Inhibition of physiological calcium release in mouse sarcoplasmic reticular skeletal muscle; assay type: functional, tissue-based
[5] = target: Ryanodine receptor 1 (Homo sapiens) (UniProt P21817); experiment: Binding affinity to RyR1 by photolabeling experiment
Chain of Ryanodine receptor 1 (Homo sapiens) (P21817 whole entry): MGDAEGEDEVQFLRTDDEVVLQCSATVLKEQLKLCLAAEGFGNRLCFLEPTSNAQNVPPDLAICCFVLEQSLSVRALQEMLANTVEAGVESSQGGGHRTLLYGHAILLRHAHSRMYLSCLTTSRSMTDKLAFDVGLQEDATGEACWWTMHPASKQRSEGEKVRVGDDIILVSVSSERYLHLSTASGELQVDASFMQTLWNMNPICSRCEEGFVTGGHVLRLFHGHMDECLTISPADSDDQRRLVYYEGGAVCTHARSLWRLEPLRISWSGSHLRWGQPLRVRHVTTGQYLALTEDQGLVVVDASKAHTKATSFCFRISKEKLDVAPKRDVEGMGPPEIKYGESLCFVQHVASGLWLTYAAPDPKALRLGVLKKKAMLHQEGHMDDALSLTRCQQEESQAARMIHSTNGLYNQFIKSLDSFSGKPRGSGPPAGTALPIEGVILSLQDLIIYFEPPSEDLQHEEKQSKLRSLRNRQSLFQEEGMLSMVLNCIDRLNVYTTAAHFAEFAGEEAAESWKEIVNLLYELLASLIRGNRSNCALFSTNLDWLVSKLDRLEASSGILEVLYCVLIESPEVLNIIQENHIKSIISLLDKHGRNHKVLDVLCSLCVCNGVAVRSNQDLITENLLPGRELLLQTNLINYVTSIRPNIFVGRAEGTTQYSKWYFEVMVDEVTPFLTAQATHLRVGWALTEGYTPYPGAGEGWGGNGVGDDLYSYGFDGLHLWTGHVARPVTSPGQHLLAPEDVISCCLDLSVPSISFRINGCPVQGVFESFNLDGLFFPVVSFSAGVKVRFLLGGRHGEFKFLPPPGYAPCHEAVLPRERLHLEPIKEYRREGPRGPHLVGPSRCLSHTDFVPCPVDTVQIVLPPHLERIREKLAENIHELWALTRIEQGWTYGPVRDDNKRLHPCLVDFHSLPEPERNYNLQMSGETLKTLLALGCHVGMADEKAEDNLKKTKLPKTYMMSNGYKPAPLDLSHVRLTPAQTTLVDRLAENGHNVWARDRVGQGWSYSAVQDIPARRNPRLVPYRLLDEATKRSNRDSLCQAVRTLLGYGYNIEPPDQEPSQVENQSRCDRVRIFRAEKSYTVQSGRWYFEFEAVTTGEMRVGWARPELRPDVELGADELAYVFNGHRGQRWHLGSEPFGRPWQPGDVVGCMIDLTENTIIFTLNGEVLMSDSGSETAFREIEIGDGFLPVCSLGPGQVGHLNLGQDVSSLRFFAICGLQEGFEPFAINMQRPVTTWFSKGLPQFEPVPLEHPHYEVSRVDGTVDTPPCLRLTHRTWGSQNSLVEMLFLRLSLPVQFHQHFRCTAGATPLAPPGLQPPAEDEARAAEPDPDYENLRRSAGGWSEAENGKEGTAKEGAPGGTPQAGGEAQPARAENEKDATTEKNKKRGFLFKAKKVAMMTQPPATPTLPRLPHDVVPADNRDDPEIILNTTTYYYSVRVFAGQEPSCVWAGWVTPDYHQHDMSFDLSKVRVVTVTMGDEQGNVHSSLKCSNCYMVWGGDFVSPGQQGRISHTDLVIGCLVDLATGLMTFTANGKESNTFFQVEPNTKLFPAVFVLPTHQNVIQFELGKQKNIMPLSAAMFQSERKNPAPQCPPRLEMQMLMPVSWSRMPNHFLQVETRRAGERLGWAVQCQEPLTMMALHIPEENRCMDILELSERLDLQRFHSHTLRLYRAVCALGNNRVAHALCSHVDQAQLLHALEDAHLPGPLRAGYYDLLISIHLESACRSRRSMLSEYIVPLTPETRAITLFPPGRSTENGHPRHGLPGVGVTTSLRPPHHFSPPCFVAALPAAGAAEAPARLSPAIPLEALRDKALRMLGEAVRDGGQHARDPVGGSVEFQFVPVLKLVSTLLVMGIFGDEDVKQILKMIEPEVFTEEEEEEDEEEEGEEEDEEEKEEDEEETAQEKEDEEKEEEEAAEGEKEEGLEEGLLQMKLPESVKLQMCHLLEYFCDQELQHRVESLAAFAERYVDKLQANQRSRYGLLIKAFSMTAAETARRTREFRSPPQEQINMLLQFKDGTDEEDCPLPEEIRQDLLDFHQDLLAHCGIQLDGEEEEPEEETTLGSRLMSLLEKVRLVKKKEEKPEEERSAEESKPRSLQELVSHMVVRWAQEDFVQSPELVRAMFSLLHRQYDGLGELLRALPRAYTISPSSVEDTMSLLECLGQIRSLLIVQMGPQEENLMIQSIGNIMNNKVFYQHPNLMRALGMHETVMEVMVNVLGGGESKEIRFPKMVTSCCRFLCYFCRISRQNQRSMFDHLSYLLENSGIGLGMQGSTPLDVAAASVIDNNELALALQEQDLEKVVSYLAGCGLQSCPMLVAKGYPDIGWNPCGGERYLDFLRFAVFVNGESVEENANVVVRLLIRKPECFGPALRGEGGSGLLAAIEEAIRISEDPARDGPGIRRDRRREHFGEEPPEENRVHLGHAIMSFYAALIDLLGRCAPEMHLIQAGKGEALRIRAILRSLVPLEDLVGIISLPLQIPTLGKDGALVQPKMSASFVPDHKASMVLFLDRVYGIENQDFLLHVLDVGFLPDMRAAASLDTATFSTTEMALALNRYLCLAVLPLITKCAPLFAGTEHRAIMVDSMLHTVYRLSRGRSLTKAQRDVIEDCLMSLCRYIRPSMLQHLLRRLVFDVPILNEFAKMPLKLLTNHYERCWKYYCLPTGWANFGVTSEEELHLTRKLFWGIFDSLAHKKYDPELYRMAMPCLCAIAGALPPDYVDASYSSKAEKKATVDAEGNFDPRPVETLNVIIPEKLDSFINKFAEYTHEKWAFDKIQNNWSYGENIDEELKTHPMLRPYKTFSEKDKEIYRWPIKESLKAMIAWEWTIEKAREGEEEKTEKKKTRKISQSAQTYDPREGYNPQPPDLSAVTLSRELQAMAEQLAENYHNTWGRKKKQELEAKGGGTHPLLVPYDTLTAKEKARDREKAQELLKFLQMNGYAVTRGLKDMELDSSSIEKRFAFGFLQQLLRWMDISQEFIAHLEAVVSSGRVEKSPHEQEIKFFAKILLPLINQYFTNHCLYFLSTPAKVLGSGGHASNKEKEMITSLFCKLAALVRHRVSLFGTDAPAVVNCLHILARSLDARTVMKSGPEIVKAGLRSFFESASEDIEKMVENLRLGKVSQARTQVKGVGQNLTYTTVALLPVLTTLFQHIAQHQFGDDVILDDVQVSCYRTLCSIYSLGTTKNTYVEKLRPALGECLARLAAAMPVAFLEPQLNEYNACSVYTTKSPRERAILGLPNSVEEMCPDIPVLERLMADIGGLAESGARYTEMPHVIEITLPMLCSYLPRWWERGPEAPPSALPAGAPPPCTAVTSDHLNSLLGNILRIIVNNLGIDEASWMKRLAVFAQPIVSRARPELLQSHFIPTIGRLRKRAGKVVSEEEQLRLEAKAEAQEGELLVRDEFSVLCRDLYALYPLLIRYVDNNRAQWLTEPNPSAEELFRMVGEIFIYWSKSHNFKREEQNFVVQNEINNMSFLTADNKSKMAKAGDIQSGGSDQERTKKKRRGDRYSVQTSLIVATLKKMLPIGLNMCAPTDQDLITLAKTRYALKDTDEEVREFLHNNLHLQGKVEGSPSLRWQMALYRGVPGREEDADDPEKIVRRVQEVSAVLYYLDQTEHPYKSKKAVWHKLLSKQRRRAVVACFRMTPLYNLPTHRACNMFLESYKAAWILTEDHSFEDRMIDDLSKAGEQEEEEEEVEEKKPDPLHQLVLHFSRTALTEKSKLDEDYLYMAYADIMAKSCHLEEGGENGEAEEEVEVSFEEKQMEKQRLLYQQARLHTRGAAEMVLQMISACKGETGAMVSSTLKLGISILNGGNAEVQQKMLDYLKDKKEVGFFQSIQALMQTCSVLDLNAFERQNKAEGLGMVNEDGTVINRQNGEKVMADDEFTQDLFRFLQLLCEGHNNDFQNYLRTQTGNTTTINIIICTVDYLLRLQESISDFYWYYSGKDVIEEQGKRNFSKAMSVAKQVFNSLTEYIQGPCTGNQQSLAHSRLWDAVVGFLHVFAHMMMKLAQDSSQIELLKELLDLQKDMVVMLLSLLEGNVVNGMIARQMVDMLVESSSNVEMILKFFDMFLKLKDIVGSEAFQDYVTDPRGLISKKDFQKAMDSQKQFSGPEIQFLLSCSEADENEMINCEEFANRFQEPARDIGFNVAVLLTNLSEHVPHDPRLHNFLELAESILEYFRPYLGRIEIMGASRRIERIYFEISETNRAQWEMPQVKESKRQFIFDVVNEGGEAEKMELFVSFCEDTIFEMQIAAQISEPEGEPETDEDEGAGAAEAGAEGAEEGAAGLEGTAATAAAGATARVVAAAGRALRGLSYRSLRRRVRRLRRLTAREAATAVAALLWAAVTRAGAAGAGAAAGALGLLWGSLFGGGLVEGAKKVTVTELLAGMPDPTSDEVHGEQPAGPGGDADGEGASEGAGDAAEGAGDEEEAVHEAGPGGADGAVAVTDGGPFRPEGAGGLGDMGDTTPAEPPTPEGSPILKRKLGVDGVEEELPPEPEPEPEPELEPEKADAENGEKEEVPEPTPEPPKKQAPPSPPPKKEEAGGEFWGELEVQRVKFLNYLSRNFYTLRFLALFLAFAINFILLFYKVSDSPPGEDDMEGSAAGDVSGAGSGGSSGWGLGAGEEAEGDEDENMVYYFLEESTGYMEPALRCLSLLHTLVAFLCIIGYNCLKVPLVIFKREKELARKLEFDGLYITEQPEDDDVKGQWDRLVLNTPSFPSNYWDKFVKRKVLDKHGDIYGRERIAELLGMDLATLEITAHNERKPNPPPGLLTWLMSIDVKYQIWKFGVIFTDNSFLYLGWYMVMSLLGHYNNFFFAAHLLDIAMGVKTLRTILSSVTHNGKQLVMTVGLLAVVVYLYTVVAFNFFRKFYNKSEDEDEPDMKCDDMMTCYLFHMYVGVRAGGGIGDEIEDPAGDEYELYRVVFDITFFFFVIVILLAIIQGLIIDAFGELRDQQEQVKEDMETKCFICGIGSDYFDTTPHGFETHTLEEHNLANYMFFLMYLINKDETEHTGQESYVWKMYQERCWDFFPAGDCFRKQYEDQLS

[6] = tested as the 125I-labelled form

SMILES: [N-]=[N+]=Nc1ccc(-c2ccc(/C=N/N3CC(=O)NC3=O)o2)cc1
- Activity [1]: Active
- Activity [2]: Active

SMILES: [N-]=[N+]=NCc1cc(N=[N+]=[N-])cc(-c2ccc(/C=N/N3CC(=O)NC3=O)o2)c1
- Activity [3]: inactive
- Activity [4]: Active

- Activity [5, 6]: inactive
SMILES: [N-]=[N+]=Nc1cc(I)cc(CN2C(=O)CN(/N=C/c3ccc(-c4ccc([N+](=O)[O-])cc4)o3)C2=O)c1
- Activity [3, 6]: inactive
- Activity [4, 6]: Active

- Activity [5]: inactive
SMILES: [N-]=[N+]=NCc1cc(CN2C(=O)CN(/N=C/c3ccc(-c4ccc([N+](=O)[O-])cc4)o3)C2=O)cc(N=[N+]=[N-])c1
- Activity [4]: Active
